Measured values as given in publication PMC7846798, “Population pharmacokinetic modeling and clinical application of vancomycin in Chinese patients hospitalized in intensive care units” (Scientific Reports, 2021).
“Also recorded” adds a separate entry of the source. Where two headings read alike, the source gives them in different places. Marks after values point to notes of the source that are not given here.

Tests used:
[1] = cited from earlier work
Excerpt: We reasonably fitted the plots of concentrations versus time with one-compartment models for most serum samples (n = 837) collected during the trough period (156 samples were collected during the approach peak period).

[2] = Population pharmacokinetic analysis of vancomycin (nonlinear mixed-effects modeling, Kinetica, one-compartment model)
Experimental: Data collected from patients’ medical records included age, total body weight, Sex, creatinine level, drug combination, and burn and continuous renal replacement therapy status (Burn-S, CRRT-S).
A total of 837 trough concentration (Ctrough) blood samples were collected 0.5 h before the next dose (after CRRT treatment for CRRT treatment patients), and 156 samples were collected at approach peak concentration (1 h after the peak concentration), both at the steady state (after the 6th dose) for most patients. All the samples (3–5 ml) were placed in 10 ml tubes containing coagulant and then centrifuged at 3000 rpm for 5 min. The supernatant serum was stored at − 80 °C for further testing.
The multilevel calibration was 0.4–100.0 μg/ml with calibration line slope consistently > 0.999. The RSD of intra-day and inter-day assays were less than 7%, and the recovery rate was 95.5–103.2%. Serum creatinine was detected by the creatine oxidase method with a biochemistry analyzer (Beckmann CX5).
As most of the trough concentrations of vancomycin was collected from sparse data at steady state, we fit the data with a one-compartment model to retrieve the pharmacokinetic parameters (CL and V).The covariate models and interindividual variability were expressed as following equation: βi=Ziβ+ηj, where βj denote as the parameter for the jth subject; Zj is amatrix depending on the covariates Zj. When no covariates are included, β is the (p*1) vector of the mean parameters; ηj is the interindividual variability that is assumed normal distribution with mean 0 and covariance matrix C (p*p).

[3] = Vancomycin serum concentrations (trough and approach peak) by HPLC; assay type: in vivo, human; details: n = 374 ICU patients
Experimental: Ctrough means trough concentration that of blood samples collected 0.5 h before the next dose; Cappro peak means approach peak concentration that of the blood samples collected 1 h after completion of drug infusion.

[4] = Christine, 102 patients, unstable renal function
[5] = used as initial estimate, Chinese adult patients, ref Ji et al. [6]
[6] = values reported by other studies in non-ICU patients
[7] = basic model (no covariates), Chinese ICU adult patients, population mean (RSE%)

CN[C@H](CC(C)C)C(=O)N[C@H]1C(=O)N[C@@H](CC(N)=O)C(=O)N[C@H]2C(=O)N[C@H]3C(=O)N[C@H](C(=O)N[C@H](C(=O)O)c4cc(O)cc(O)c4-c4cc3ccc4O)[C@H](O)c3ccc(c(Cl)c3)Oc3cc2cc(c3O[C@@H]2O[C@H](CO)[C@@H](O)[C@H](O)[C@H]2O[C@H]2C[C@](C)(N)[C@H](O)[C@H](C)O2)Oc2ccc(cc2Cl)[C@H]1O [vancomycin]
Final model of CL [1, 4]: CL(L·h^−1) = 2.97*(1 + 0.0205*(CLCr − CLCrMedian)) | V [1, 4]: 1.24 L/kg | V ([1]; ICU patients with Cr > 88.4 μmol/l): 148.19 L | V ([1]; ICU patients with Cr value below 88.4 μmol/l): 59.86 L | Final model of CL ([1]; Llopis, 30 ICU patients): CL(L·h^−1) = 0.034*CLCr(ml·min^−1) + 0.015* TBW | Final model of Vc (central compartment volume) ([1]; Llopis, 30 ICU patients): Vc (L) = 0.414* TBW | Final model of Vp (peripheral compartment volume) ([1]; Llopis, 30 ICU patients): Vp (L) = 1.32*TBW | Final model of CL ([1]; Natalia, 191 ICU patients): CL(ml·min^−1·kg^−1) = 0.67*CLCr (ml·min^−1 ·kg^−1) + AGE^−0.24 | Final model of V ([1]; Natalia, 191 ICU patients): V (L·kg^−1) = 0.82*2.49^A, A = 0 or 1 if Cr ≤ 88.4 or Cr > 88.4 μmol/L | Final model of CL ([1]; Yasuhara, 190 adult Japanese, if CLCr < 85): CL(L·h^−1) = 0.0487*CLCr(ml·min^−1), | CL ([1]; Yasuhara, 190 adult Japanese, if CLCr > 85): 3.51 L/h | initial pharmacokinetic parameter CL [1, 5]: 2.83 L/h | initial pharmacokinetic parameter V [1, 5]: 52.14 L | CL [1, 6]: 2.89 to 5.93 L/h | V [1, 6]: 31.24 to 91.76 L | CL (RSE%) [2, 7]: 2.63 (25.72) L/h | V (RSE%) [2, 7]: 55.32 (27.31) L | Final covariate equation of V ([2]; final model, Cr μmol/L, Age y, TBW kg): V = 46.47 − 0.04*Cr − 0.07*Age + 0.16* TBW | Final covariate equation of CL ([2]; final model, DA dopamine (1 not used, 2 used), Cr μmol/L, Burn-S (1 burn > 50%, 2 < 50%), TBW kg, CRRT-S (1 CRRT, 2 not)): CL = 0.78 + 0.036*DA − 0.007*Cr − 0.43*Burn-S + 0.067*TBW + 0.41*CRRT-S; also recorded: CL =0.78 + 0.036*DA − 0.007*Cr -0.43* Burn-S + 0.067*TBW + 0.41* CRRT-S | CL (RSE%) ([2]; final population model, Chinese ICU adult patients, one-compartment, EM algorithm, Kinetica 4.4.1, 294 patients for model building, serum HPLC, population mean): 3.16 (56.01) L/h | Ctrough (trough concentration) ([3]; blood samples collected 0.5 h before the next dose, steady state (after the 6th dose), regimens 0.5 g qd to 1 g q12h): 16.3 ± 12.4 | Cappro peak (approach peak concentration) ([3]; blood samples collected 1 h after completion of drug infusion, steady state): 36.0 ± 19.4
